From patent publication US20100216848A1, “LIQUID PHARMACEUTICAL COMPOSITIONS FOR PARENTERAL ADMINISTRATION OF A SUBSTITUTED AMIDE” (priority 2007, published 2010)

Assays:
[1] = Solubility of Compound I anhydrous Polymorph B in various liquid vehicles (suspension equilibrated at least 24 hours, filtered, HPLC); format: physicochemical; conditions: aqueous with cosolvent or surfactant or cyclodextrin, thermodynamic from solid
Method: Solubility determinations were carried out at room temperature unless otherwise specified. Solubility of N-[1S,2S]-3-(4-chlorophenyl)-2-(3-cyanophenyl)-1-methylpropyl]-2-methyl-2-{[5-trifluoromethyl]pyridine-2-yl}oxy}propanamide (Compound I) as anhydrous unsolvated Polymorph B (such as prepared in Preparatory Example 2) was determined by preparing a suspension of anhydrous Polymorph B of Compound I in the solvent system. After equilibration for at least 24 hours, the suspension was filtered and the supernatant was analyzed by HPLC. Chromatography was performed on either a Vydac C18 300 Å 250×4.6 mm 5 μm particle size with in-line Phenomenex Security Guard w/C18 cartridge or on a Polaris C18-Ether columns or on a Polaris C8-Ether columns using 0.1% phosphoric acid in combination with methanol or acetonitrile depending on HPLC conditions. The compound was detected at 220 and 272 nm wavelength and assayed using standard curves. The results are presented below in Table 1, calculated based on mg/g vehicle.

[2] = Aqueous solubility of Compound I; format: physicochemical; conditions: water

## C[C@H](NC(=O)C(C)(C)Oc1ccc(C(F)(F)F)cn1)[C@@H](Cc1ccc(Cl)cc1)c1cccc(C#N)c1 [Compound I, N-[1S,2S]-3-[(4-chlorophenyl)-2-(3-cyanophenyl)-1-methylpropyl]-2-methyl-2-{[(5-trifluoromethyl)pyridine-2-yl]oxy}propanamide]
[1]; 40% H2O, 35% Captisol, 15% glycerol, 10% EtOH, 40% H20, room temperature
  solubility: 20 µg/mL
[1]; 50% H2O, 25% PG, 25% PEG300, 50% H20, room temperature
  solubility: 70 µg/mL
[1]; 90% H2O, 10% glycerol, 90% H20, room temperature
  solubility: < 1 µg/mL
[1]; 94.5% H2O, 0.5% Tween80, 5% EtOH, 94.5% H20, room temperature
  solubility: 80 µg/mL
[1]; 95.5% H2O, 0.5% Tween80, 95.5% H20, room temperature
  solubility: 80 µg/mL
[1]; 97.5% H2O, 2.5% Tween80, 97.5% H20, room temperature
  solubility: 400 µg/mL
[1]; 99.75% H2O, 0.25% Tween80, 99.75% H20, room temperature
  solubility: 40 µg/mL
[1]; 0.5% Tween80, 95.5% Saline, room temperature
  solubility: 80 µg/mL
[1]; 10% EtOH, 90% H2O, room temperature
  solubility: < 1 µg/mL
[1]; 15% glycerol, 10% EtOH, 75% H2O, room temperature
  solubility: < 1 µg/mL
[1]; 25% PEG400, 75% H2O, room temperature
  solubility: 4 µg/mL
[1]; 35% hydroxypropyl beta cyclodextrin, 18% glycerol, 10% EtOH, 37% H20, room temperature
  solubility: 40 µg/mL
[2]
  solubility: < 0.4 µg/mL
